Assay results as given in patent US8957108B2, “Use of 5,6-dimethylxanthenone-4-acetic acid as an antiviral agent” (University of Maryland, Baltimore, priority 2006, dated 2015).

Tested on: C57BL/6J macrophages
[1] = DMXAA 3 h vs unstimulated wild-type cells

Structure (SMILES): Cc1ccc2c(=O)c3cccc(CC(=O)O)c3oc2c1C [DMXAA, 5,6-dimethylxanthenone-4-acetic acid]
- CYP1A2 Fold Change: BL/6: −7.0 fold
- CYP1A2 WT/KO: 1.8
- CYP1B1 Fold Change: BL/6: −44.3 fold
- CYP1B1 WT/KO: 7.5
- number of genes down-regulated ≧3-fold (3 h, vs medium-treated cells): 26 genes
- number of genes up-regulated ≧3-fold (3 h, vs medium-treated cells): 110 genes
- 2310043N10RIK Fold Change: BL/6 [1]: −7.1 fold
- 5830484A20RIK Fold Change: BL/6 [1]: 5.7 fold
- ABCB1 Fold Change: BL/6 [1]: 7.9 fold
- ABL1 Fold Change: BL/6 [1]: −8.4 fold
- ABLIM1 Fold Change: BL/6 [1]: −9.7 fold
- ACVR1B Fold Change: BL/6 [1]: −4.5 fold
- ADRB2 Fold Change: BL/6 [1]: −3.2 fold
- AFTIPHILIN Fold Change: BL/6 [1]: 3.5 fold
- AKAP12 Fold Change: BL/6 [1]: 3.2 fold
- AMPD3 Fold Change: BL/6 [1]: −3.9 fold
- AP2A2 Fold Change: BL/6 [1]: −10.1 fold
- APBB1IP Fold Change: BL/6 [1]: −3.9 fold
- APOBEC3F Fold Change: BL/6 [1]: 3.5 fold
- ARHGEF3 Fold Change: BL/6 [1]: 4.2 fold
- ARID3A Fold Change: BL/6 [1]: −4.1 fold
- ARL4C Fold Change: BL/6 [1]: 5.7 fold
- ASF1A Fold Change: BL/6 [1]: 3.7 fold
- ATRX Fold Change: BL/6 [1]: −4.2 fold
- B3GAT3 Fold Change: BL/6 [1]: −9.0 fold
- BACE1 Fold Change: BL/6 [1]: −11.5 fold
- BAMBI Fold Change: BL/6 [1]: 4.0 fold
- BCL2 Fold Change: BL/6 [1]: −7.5 fold
- BCL2L1 Fold Change: BL/6 [1]: −14.0 fold
- BHLHB2 Fold Change: BL/6 [1]: −3.8 fold
- BID Fold Change: BL/6 [1]: 3.2 fold
- C8ORF4 Fold Change: BL/6 [1]: −35.4 fold
- C9ORF26 Fold Change: BL/6 [1]: 9.1 fold
- CCL2 Fold Change: BL/6 [1]: 125.6 fold
- CCL3 Fold Change: BL/6 [1]: 5.6 fold
- CCL4 Fold Change: BL/6 [1]: 15.1 fold
- CCL5 Fold Change: BL/6 [1]: 5.3 fold
- CCL7 Fold Change: BL/6 [1]: 9.6 fold
- CCL13 Fold Change: BL/6 [1]: 16.8 fold
- CCND2 Fold Change: BL/6 [1]: 6.4 fold
- CCNE1 Fold Change: BL/6 [1]: 3.2 fold
- CCNF Fold Change: BL/6 [1]: −10.6 fold
- CCRN4L Fold Change: BL/6 [1]: 5.7 fold
- CD37 Fold Change: BL/6 [1]: −5.2 fold
- CD40 Fold Change: BL/6 [1]: 10.3 fold
- CD86 Fold Change: BL/6 [1]: 11.1 fold
- CD274 Fold Change: BL/6 [1]: 6.0 fold
- CDC6 Fold Change: BL/6 [1]: 3.8 fold
- CDC7 Fold Change: BL/6 [1]: −3.4 fold
- CDC37L1 Fold Change: BL/6 [1]: −3.8 fold
- CDKN1A Fold Change: BL/6 [1]: 3.1 fold
- CEBPB Fold Change: BL/6 [1]: −3.3 fold
- CITED2 Fold Change: BL/6 [1]: 6.8 fold
- CLCA1 Fold Change: BL/6 [1]: −4.8 fold
- CNR2 Fold Change: BL/6 [1]: −9.1 fold
- CREBBP Fold Change: BL/6 [1]: −4.5 fold
- CXCL10 Fold Change: BL/6 [1]: 69.1 fold
- DAXX Fold Change: BL/6 [1]: 7.9 fold
- DSCR1 Fold Change: BL/6 [1]: 3.4 fold
- FGD6 Fold Change: BL/6 [1]: 3.0 fold
- FGL2 Fold Change: BL/6 [1]: 10.6 fold
- GBP2 Fold Change: BL/6 [1]: 4.8 fold
- GBP4 Fold Change: BL/6 [1]: 7.5 fold
- GBP6 Fold Change: BL/6 [1]: 10.8 fold
- GYPC Fold Change: BL/6 [1]: 5.9 fold
- IFI16 Fold Change: BL/6 [1]: 4.3 fold
- IFI35 Fold Change: BL/6 [1]: 3.6 fold
- IFI203 Fold Change: BL/6 [1]: 21.9 fold
- IFI205 Fold Change: BL/6 [1]: 6.4 fold
- IFIH1 Fold Change: BL/6 [1]: 10.1 fold
- IFIT1 Fold Change: BL/6 [1]: 33.5 fold
- IFIT2 Fold Change: BL/6 [1]: 27.1 fold
- IFIT3 Fold Change: BL/6 [1]: 32.2 fold
- IFNA5 Fold Change: BL/6 [1]: 32.4 fold
- IFNA6 Fold Change: BL/6 [1]: 77.7 fold
- IFNB1 Fold Change: BL/6 [1]: 194.1 fold
- IFNG Fold Change: BL/6 [1]: 46.5 fold
- IGTP Fold Change: BL/6 [1]: 13.7 fold
- IIGP1 Fold Change: BL/6 [1]: 21.9 fold
- IL6 Fold Change: BL/6 [1]: 564.6 fold
- IL12B Fold Change: BL/6 [1]: 4.4 fold
- IL15 Fold Change: BL/6 [1]: 7.2 fold
- IL15RA Fold Change: BL/6 [1]: 14.9 fold
- IRF1 Fold Change: BL/6 [1]: 6.9 fold
- IRF2 Fold Change: BL/6 [1]: 4.1 fold
- IRGM Fold Change: BL/6 [1]: 6.6 fold
- ISG20 Fold Change: BL/6 [1]: 20.9 fold
- KATNA1 Fold Change: BL/6 [1]: 3.2 fold
- LGP2 Fold Change: BL/6 [1]: 6.4 fold
- LHX2 Fold Change: BL/6 [1]: 92.1 fold
- LOC129607 Fold Change: BL/6 [1]: 58.9 fold
- MAFK Fold Change: BL/6 [1]: 4.7 fold
- MARCH5 Fold Change: BL/6 [1]: 4.7 fold
- MOV10 Fold Change: BL/6 [1]: 4.2 fold
- MX1 Fold Change: BL/6 [1]: 191.4 fold
- MX2 Fold Change: BL/6 [1]: 85.3 fold
- NMI Fold Change: BL/6 [1]: 4.5 fold
- NP Fold Change: BL/6 [1]: 4.1 fold
- NT5C3 Fold Change: BL/6 [1]: 6.4 fold
- OAS1B Fold Change: BL/6 [1]: 12.7 fold
- OASL Fold Change: BL/6 [1]: 35.6 fold
- P4HA1 Fold Change: BL/6 [1]: 4.3 fold
- P8 Fold Change: BL/6 [1]: 3.7 fold
- PARP9 Fold Change: BL/6 [1]: 4.0 fold
- PELI1 Fold Change: BL/6 [1]: 5.9 fold
- PGF Fold Change: BL/6 [1]: 25.3 fold
- PLAU Fold Change: BL/6 [1]: 3.9 fold
- PPP1R15A Fold Change: BL/6 [1]: 5.3 fold
- PTX3 Fold Change: BL/6 [1]: 5.3 fold
- PVRL2 Fold Change: BL/6 [1]: 6.4 fold
- PVRL4 Fold Change: BL/6 [1]: 9.0 fold
- REL Fold Change: BL/6 [1]: 3.1 fold
- RGC32 Fold Change: BL/6 [1]: 8.7 fold
- RIPK2 Fold Change: BL/6 [1]: 3.2 fold
- RSAD2 Fold Change: BL/6 [1]: 15.5 fold
- SAP30 Fold Change: BL/6 [1]: 3.9 fold
- SAV1 Fold Change: BL/6 [1]: 3.2 fold
- SDC4 Fold Change: BL/6 [1]: 3.9 fold
- SECTM1 Fold Change: BL/6 [1]: 17.7 fold
- SLC7A2 Fold Change: BL/6 [1]: 3.6 fold
- SOAT1 Fold Change: BL/6 [1]: 3.6 fold
- SOCS1 Fold Change: BL/6 [1]: 57.5 fold
- STAT2 Fold Change: BL/6 [1]: 3.9 fold
- TGTP Fold Change: BL/6 [1]: 60.2 fold
- TLK2 Fold Change: BL/6 [1]: 4.2 fold
- TLR3 Fold Change: BL/6 [1]: 8.8 fold
- TMOD3 Fold Change: BL/6 [1]: 3.4 fold
- TNF Fold Change: BL/6 [1]: 6.9 fold
- TNFRSF11B Fold Change: BL/6 [1]: 90.5 fold
- TNFSF9 Fold Change: BL/6 [1]: 5.1 fold
- TOR1AIP1 Fold Change: BL/6 [1]: 3.1 fold
- TPST1 Fold Change: BL/6 [1]: 6.7 fold
- TREX1 Fold Change: BL/6 [1]: 10.2 fold
- TRIM21 Fold Change: BL/6 [1]: 8.4 fold
- TRIM25 Fold Change: BL/6 [1]: 4.2 fold
- TRIM34 Fold Change: BL/6 [1]: 3.3 fold
- USP18 Fold Change: BL/6 [1]: 11.6 fold
- VCAM1 Fold Change: BL/6 [1]: 3.4 fold
